Reference: the supplement of paper PMC10307832

Assays:
Experiment in all cases: relative viability (nuclei count vs DMSO), 5 days (fraction); higher = more cells survive
[1] = compound: OCc1c[nH]c2ccccc12 [Indole-3-carbinol] + CC(=O)Nc1cccc(-n2c(=O)n(C3CC3)c(=O)c3c(Nc4ccc(I)cc4F)n(C)c(=O)c(C)c32)c1 [Trametinib] (partner 0.02 µM)
Method in brief: (§1)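 After 5 days of treatment, lung cancer cells in 1536-well plates were fixed and stained in a single step (final 0.05% Triton X-100, 1% formaldehyde, 1 ug/ml Hoechst) and their nuclei counted on 4× images. Treatment had been applied by pin tool the day after seeding as one drug alone or as a fixed anchor-drug dose with five library-drug doses (not always all listed) in √10 steps. Relative viability is the nuclei count of treated wells divided by that of vehicle wells, and values are medians of duplicate plates.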

[2] = compound: OCc1c[nH]c2ccccc12 [Indole-3-carbinol] + CC(=O)c1c(C)c2cnc(Nc3ccc(N4CCNCC4)cn3)nc2n(C2CCCC2)c1=O [Palbociclib] (partner 0.5 µM)
Method in brief: as §1

[3] = compound: OCc1c[nH]c2ccccc12 [Indole-3-carbinol] + Cc1nc(Nc2ncc(C(=O)Nc3c(C)cccc3Cl)s2)cc(N2CCN(CCO)CC2)n1 [Dasatinib] (partner 0.075 µM)
Method in brief: as §1

[4] = compound: OCc1c[nH]c2ccccc12 [Indole-3-carbinol] + NC(=O)Nc1cc(-c2cccc(F)c2)sc1C(=O)N[C@H]1CCCNC1 [AZD7762] (partner 0.2 µM)
Method in brief: as §1

[5] = compound: OCc1c[nH]c2ccccc12 [Indole-3-carbinol] + Cc1cc(Nc2cc(N3CCN(C)CC3)nc(Sc3ccc(NC(=O)C4CC4)cc3)n2)n[nH]1 [Tozasertib] (partner 0.1 µM)
Method in brief: as §1

Row | Cell Line | relative viability ([1]; first compound 0.253 µM) | relative viability ([1]; first compound 0.8 µM) | relative viability ([1]; first compound 2.53 µM) | relative viability ([1]; first compound 8 µM) | relative viability ([2]; first compound 0.253 µM) | relative viability ([2]; first compound 0.8 µM) | relative viability ([2]; first compound 2.53 µM) | relative viability ([2]; first compound 8 µM) | relative viability ([3]; first compound 0.253 µM) | relative viability ([3]; first compound 2.53 µM) | relative viability ([3]; first compound 8 µM) | relative viability ([4]; first compound 0.253 µM) | relative viability ([4]; first compound 0.8 µM) | relative viability ([4]; first compound 2.53 µM) | relative viability ([4]; first compound 8 µM) | relative viability ([5]; first compound 0.253 µM) | relative viability ([5]; first compound 2.53 µM) | relative viability ([5]; first compound 8 µM) | relative viability ([3]; first compound 0.8 µM) | relative viability ([5]; first compound 0.8 µM)
1 | NCI-H647 | 0.562 | 0.405 | 0.508 | 0.524 | 0.392 | 0.318 | 0.292 | 0.433 | 0.18 | 0.222 | 0.167 | 0.604 | 0.293 | 0.463 | 0.551 | 0.147 | 0.368 | 0.398 |  | 
2 | NCI-H2009 | 0.285 | 0.294 | 0.278 | 0.281 | 0.213 | 0.188 | 0.169 | 0.226 | 0.316 | 0.33 | 0.3 |  |  |  |  | 0.691 | 0.737 | 0.739 | 0.305 | 0.862
3 | EPLC-272H | 0.293 | 0.268 | 0.296 | 0.275 | 0.325 | 0.376 | 0.318 | 0.334 | 0.44 | 0.403 | 0.387 | 0.26 | 0.236 | 0.18 | 0.214 | 0.33 | 0.369 | 0.396 | 0.406 | 0.267
4 | NCI-H520 | 0.702 | 0.575 | 0.741 | 0.772 | 0.225 | 0.183 | 0.21 | 0.217 | 0.177 | 0.242 | 0.183 |  |  |  |  | 0.445 | 0.417 | 0.457 | 0.245 | 0.46
5 | NCI-H2405 | 0.634 | 0.615 | 0.672 | 0.703 | 0.513 | 0.554 | 0.553 | 0.491 | 0.212 | 0.2 | 0.214 | 0.839 | 0.727 | 0.755 | 0.659 | 0.751 | 0.758 | 0.776 | 0.211 | 0.806
6 | NCI-H2085 | 0.884 | 0.514 | 0.56 | 0.622 | 0.469 | 0.492 | 0.451 | 0.439 | 0.259 | 0.256 | 0.262 | 0.965 | 1.01 | 1.05 | 0.893 | 0.848 | 0.887 | 0.79 | 0.225 | 0.914
7 | NCI-H322M | 0.517 | 0.411 | 0.496 | 0.451 | 0.456 | 0.481 | 0.506 | 0.476 | 0.239 | 0.237 | 0.255 | 0.607 | 0.596 | 0.514 | 0.613 | 0.476 | 0.458 | 0.472 | 0.245 | 0.465
8 | NCI-H1944 | 0.425 | 0.378 | 0.393 | 0.417 | 0.338 | 0.279 | 0.304 | 0.311 | 0.207 | 0.233 | 0.232 | 0.517 | 0.441 | 0.509 | 0.54 | 0.245 | 0.264 | 0.246 | 0.192 | 0.241
9 | LC-2-ad | 0.893 | 0.879 | 0.897 | 0.869 | 0.533 | 0.534 | 0.513 | 0.455 | 0.657 | 0.589 | 0.595 | 0.865 | 0.873 | 0.828 | 0.82 | 0.404 | 0.537 | 0.468 | 0.735 | 0.417
10 | NCI-H358 | 0.119 | 0.122 | 0.139 | 0.121 | 0.145 | 0.125 | 0.136 | 0.12 | 0.146 | 0.172 | 0.189 | 0.56 | 0.489 | 0.591 | 0.507 | 0.097 | 0.113 | 0.0974 | 0.204 | 0.131
11 | NCI-H2170 | 0.882 | 0.859 | 0.892 | 0.869 | 0.384 | 0.375 | 0.41 | 0.42 | 0.588 | 0.703 | 0.594 | 1.01 | 0.898 | 0.89 | 0.894 | 0.703 | 0.79 | 0.717 | 0.644 | 0.712
12 | A-427 | 0.713 | 0.717 | 0.76 | 0.685 | 0.52 | 0.568 | 0.547 | 0.491 | 0.676 | 0.742 | 0.564 | 0.72 | 0.763 | 0.908 | 0.778 | 0.193 | 0.226 | 0.224 | 0.768 | 0.226
13 | NCI-H1666 | 0.828 | 0.85 | 0.939 | 0.788 | 0.667 | 0.694 | 0.667 | 0.626 | 0.898 | 0.886 | 0.805 | 0.914 | 0.743 | 0.827 | 0.739 | 0.556 | 0.526 | 0.657 | 0.835 | 0.638
